Source: PubChem BioAssay AID2060341 (Molecular Pharmacology Branch, DTP, NCI, 2025)
Values joined by “and” are separate entries in the source; they are usually repeats but may differ in a detail not shown here. Equal entries are not always repeated.

System: 327498-153-R-J2-PDC multicell spheroid viability
Test: Anticancer human tumor 327498-153-R-J2-PDC patient-derived uterine carcinosarcoma cell line growth inhibition [IpAb]
Conditions: for viability, T/C: stronger effect = lower value
How it was run: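 Combinations with ipatasertib or abemaciclib were tested on tumour spheroids holding HUVEC (25%) and MSC (15%) alongside 60% malignant cells. Top concentration was at or near clinical Cmax (10 microM if undefined), descending in half-log steps.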

[1] = curve of first compound, second compound 0.01 µM
[2] = curve of first compound, second compound 0.0316 µM
[3] = curve of first compound, second compound 0.1 µM
[4] = curve of first compound, second compound 0.316 µM
[5] = curve of first compound, second compound 1 µM
[6] = second compound 0.01 µM, first compound 0.0316 µM
[7] = second compound 0.01 µM, first compound 0.1 µM
[8] = second compound 0.01 µM, first compound 0.316 µM
[9] = second compound 0.01 µM, first compound 1 µM
[10] = second compound 0.01 µM, first compound 3.16 µM
[11] = second compound 0.01 µM, first compound 10 µM
[12] = second compound 0.0316 µM, first compound 0.0316 µM
[13] = second compound 0.0316 µM, first compound 0.1 µM
[14] = second compound 0.0316 µM, first compound 0.316 µM
[15] = second compound 0.0316 µM, first compound 1 µM
[16] = second compound 0.0316 µM, first compound 3.16 µM
[17] = second compound 0.0316 µM, first compound 10 µM
[18] = second compound 0.1 µM, first compound 0.0316 µM
[19] = second compound 0.1 µM, first compound 0.1 µM
[20] = second compound 0.1 µM, first compound 0.316 µM
[21] = second compound 0.1 µM, first compound 1 µM
[22] = second compound 0.1 µM, first compound 3.16 µM
[23] = second compound 0.1 µM, first compound 10 µM
[24] = second compound 0.316 µM, first compound 0.0316 µM
[25] = second compound 0.316 µM, first compound 0.1 µM
[26] = second compound 0.316 µM, first compound 0.316 µM
[27] = second compound 0.316 µM, first compound 1 µM
[28] = second compound 0.316 µM, first compound 3.16 µM
[29] = second compound 0.316 µM, first compound 10 µM
[30] = second compound 1 µM, first compound 0.0316 µM
[31] = second compound 1 µM, first compound 0.1 µM
[32] = second compound 1 µM, first compound 0.316 µM
[33] = second compound 1 µM, first compound 1 µM
[34] = second compound 1 µM, first compound 3.16 µM
[35] = second compound 1 µM, first compound 10 µM
[36] = curve of first compound, second compound 3.16 µM
[37] = curve of first compound, second compound 10 µM
[38] = second compound 3.16 µM, first compound 0.0316 µM
[39] = second compound 3.16 µM, first compound 0.1 µM
[40] = second compound 3.16 µM, first compound 0.316 µM
[41] = second compound 3.16 µM, first compound 1 µM
[42] = second compound 3.16 µM, first compound 3.16 µM
[43] = second compound 3.16 µM, first compound 10 µM
[44] = second compound 10 µM, first compound 0.0316 µM
[45] = second compound 10 µM, first compound 0.1 µM
[46] = second compound 10 µM, first compound 0.316 µM
[47] = second compound 10 µM, first compound 1 µM
[48] = second compound 10 µM, first compound 3.16 µM
[49] = second compound 10 µM, first compound 10 µM
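Further: spheroids exposed to agents for 7 days.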
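Wherever viability, T/C is given: 100% = DMSO vehicle control viability.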

Structure (SMILES): Cn1ncc(Cl)c1-c1cc(C(=O)NC(CN)Cc2cccc(F)c2)sc1Cl (centres undefined) + CCN1CCN(Cc2ccc(Nc3ncc(F)c(-c4cc(F)c5nc(C)n(C(C)C)c5c4)n3)nc2)CC1
- IC50 [1]: 312 nM
- IC50 [2]: 125 nM
- IC50 [3]: 50.1 nM
- IC50 [4]: < 31.6 nM
- IC50 [5]: 64.4 nM
- viability, T/C [6]: 78%
- viability, T/C [7]: 60.3%
- viability, T/C [8]: 48.7%
- viability, T/C [9]: 35.4%
- viability, T/C [10]: 24.5%
- viability, T/C [11]: 0.14%
- viability, T/C [12]: 64.5%
- viability, T/C [13]: 49%
- viability, T/C [14]: 40.5%
- viability, T/C [15]: 27.9%
- viability, T/C [16]: 24%
- viability, T/C [17]: 0.12%
- viability, T/C [18]: 53.4%
- viability, T/C [19]: 46.2%
- viability, T/C [20]: 34.4%
- viability, T/C [21]: 28.1%
- viability, T/C [22]: 21.1%
- viability, T/C [23]: 0.12%
- viability, T/C [24]: 48.9%
- viability, T/C [25]: 44.5%
- viability, T/C [26]: 33.9%
- viability, T/C [27]: 28.9%
- viability, T/C [28]: 20.6%
- viability, T/C [29]: 0.14%
- viability, T/C [30]: 54.1%
- viability, T/C [31]: 49.1%
- viability, T/C [32]: 34.9%
- viability, T/C [33]: 29.9%
- viability, T/C [34]: 21.7%
- viability, T/C [35]: 0.2%

Structure (SMILES): C=CCn1c(=O)c2cnc(Nc3ccc(N4CCN(C)CC4)cc3)nc2n1-c1cccc(C(C)(C)O)n1 + CCN1CCN(Cc2ccc(Nc3ncc(F)c(-c4cc(F)c5nc(C)n(C(C)C)c5c4)n3)nc2)CC1
- IC50 [1]: 318 nM
- IC50 [2]: 261 nM
- IC50 [3]: 222 nM
- IC50 [4]: 250 nM
- IC50 [5]: 313 nM
- viability, T/C [6]: 94.3%
- viability, T/C [7]: 88.5%
- viability, T/C [8]: 50.6%
- viability, T/C [9]: 5.09%
- viability, T/C [10]: 4.75%
- viability, T/C [11]: 5.85%
- viability, T/C [12]: 84.4%
- viability, T/C [13]: 76.9%
- viability, T/C [14]: 44.9%
- viability, T/C [15]: 6.81%
- viability, T/C [16]: 5.01%
- viability, T/C [17]: 6.96%
- viability, T/C [18]: 69.1%
- viability, T/C [19]: 68.5%
- viability, T/C [20]: 41.9%
- viability, T/C [21]: 11.1%
- viability, T/C [22]: 7.8%
- viability, T/C [23]: 9.75%
- viability, T/C [24]: 66.2%
- viability, T/C [25]: 61.1%
- viability, T/C [26]: 47.3%
- viability, T/C [27]: 24%
- viability, T/C [28]: 14.6%
- viability, T/C [29]: 14.8%
- viability, T/C [30]: 60.6%
- viability, T/C [31]: 58.6%
- viability, T/C [32]: 50.4%
- viability, T/C [33]: 31.8%
- viability, T/C [34]: 20.7%
- viability, T/C [35]: 14.9%

Structure (SMILES): CCN1CCN(Cc2ccc(Nc3ncc(F)c(-c4cc(F)c5nc(C)n(C(C)C)c5c4)n3)nc2)CC1
- viability, T/C (compound 0.01 µM): 92% [middle of 13 runs]
- viability, T/C (compound 0.0316 µM): 72.6% [middle of 13 runs]
- viability, T/C (compound 0.1 µM): 62.2% [middle of 13 runs]
- viability, T/C (compound 0.316 µM): 57.3% [middle of 13 runs]
- viability, T/C (compound 1 µM): 56.8% [middle of 13 runs]

Structure (SMILES): CCCS(=O)(=O)Nc1ccc(F)c(C(=O)c2c[nH]c3ncc(-c4ccc(Cl)cc4)cc23)c1F + CCN1CCN(Cc2ccc(Nc3ncc(F)c(-c4cc(F)c5nc(C)n(C(C)C)c5c4)n3)nc2)CC1
- IC50 [1]: > 10000 nM
- IC50 [2]: > 10000 nM
- IC50 [3]: > 10000 nM
- IC50 [4]: > 10000 nM
- IC50 [5]: > 10000 nM
- viability, T/C [6]: 107%
- viability, T/C [7]: 105%
- viability, T/C [8]: 104%
- viability, T/C [9]: 108%
- viability, T/C [10]: 98.1%
- viability, T/C [11]: 97.3%
- viability, T/C [12]: 81%
- viability, T/C [13]: 88.7%
- viability, T/C [14]: 85.6%
- viability, T/C [15]: 99.5%
- viability, T/C [16]: 94.2%
- viability, T/C [17]: 86.9%
- viability, T/C [18]: 73.4%
- viability, T/C [19]: 77.8%
- viability, T/C [20]: 77.2%
- viability, T/C [21]: 78.5%
- viability, T/C [22]: 76.6%
- viability, T/C [23]: 70.8%
- viability, T/C [24]: 70.6%
- viability, T/C [25]: 70.2%
- viability, T/C [26]: 63.8%
- viability, T/C [27]: 76.1%
- viability, T/C [28]: 73.1%
- viability, T/C [29]: 70.4%
- viability, T/C [30]: 58.9%
- viability, T/C [31]: 70.9%
- viability, T/C [32]: 72.8%
- viability, T/C [33]: 68.3%
- viability, T/C [34]: 68.3%
- viability, T/C [35]: 63.2%

Structure (SMILES): Cn1nccc1Nc1nccc(-c2ccn(C(CO)c3ccc(Cl)c(F)c3)c(=O)c2)n1 (centres undefined)
- viability, T/C (compound 0.0316 µM): 99.2% and 102%
- viability, T/C (compound 0.1 µM): 97.9% and 90.4%
- viability, T/C (compound 0.316 µM): 98.9% and 92%
- viability, T/C (compound 1 µM): 83.2% and 93.5%
- viability, T/C (compound 3.16 µM): 64.7% and 54.9%
- viability, T/C (compound 10 µM): 34.4% and 29.1%
- IC50 (curve of compound): 5450 nM and 3930 nM

Structure (SMILES): CC(=O)c1c(C)c2cnc(Nc3ccc(N4CCNCC4)cn3)nc2n(C2CCCC2)c1=O
- viability, T/C (compound 0.000949 µM): 106% and 97.8%
- viability, T/C (compound 0.003 µM): 96.7% and 103%
- viability, T/C (compound 0.00949 µM): 99.7% and 95.5%
- viability, T/C (compound 0.03 µM): 79.2% and 89.8%
- viability, T/C (compound 0.0949 µM): 70.2% and 70.4%
- viability, T/C (compound 0.3 µM): 71% and 56.5%
- IC50 (curve of compound): > 300 nM

Structure (SMILES): Cn1ncc(Cl)c1-c1cc(C(=O)NC(CN)Cc2cccc(F)c2)sc1Cl (centres undefined) + CC(C)NCC(C(=O)N1CCN(c2ncnc3c2C(C)CC3O)CC1)c1ccc(Cl)cc1
- IC50 [3]: 1310 nM
- IC50 [4]: 1640 nM
- IC50 [5]: 1250 nM
- IC50 [36]: 920 nM
- IC50 [37]: < 31.6 nM
- viability, T/C [18]: 98.5%
- viability, T/C [19]: 86.4%
- viability, T/C [20]: 70%
- viability, T/C [21]: 53.9%
- viability, T/C [22]: 38.1%
- viability, T/C [23]: 0.27%
- viability, T/C [24]: 77.7%
- viability, T/C [25]: 77.5%
- viability, T/C [26]: 63.2%
- viability, T/C [27]: 60.1%
- viability, T/C [28]: 40%
- viability, T/C [29]: 0.3%
- viability, T/C [30]: 63.4%
- viability, T/C [31]: 55.8%
- viability, T/C [32]: 55.3%
- viability, T/C [33]: 52.9%
- viability, T/C [34]: 39.8%
- viability, T/C [35]: 0.31%
- viability, T/C [38]: 50.5%
- viability, T/C [39]: 56.8%
- viability, T/C [40]: 50%
- viability, T/C [41]: 49.5%
- viability, T/C [42]: 39.2%
- viability, T/C [43]: 0.3%
- viability, T/C [44]: 35.5%
- viability, T/C [45]: 45.2%
- viability, T/C [46]: 41.7%
- viability, T/C [47]: 35.8%
- viability, T/C [48]: 35.6%
- viability, T/C [49]: 0.42%

Structure (SMILES): Cn1nccc1Nc1nccc(-c2ccn(C(CO)c3ccc(Cl)c(F)c3)c(=O)c2)n1 (centres undefined) + CC(C)NCC(C(=O)N1CCN(c2ncnc3c2C(C)CC3O)CC1)c1ccc(Cl)cc1
- IC50 [3]: 3260 nM
- IC50 [4]: 684 nM
- IC50 [5]: < 31.6 nM
- IC50 [36]: < 31.6 nM
- IC50 [37]: < 31.6 nM
- viability, T/C [18]: 87.2%
- viability, T/C [19]: 77.7%
- viability, T/C [20]: 71.4%
- viability, T/C [21]: 71.7%
- viability, T/C [22]: 47.9%
- viability, T/C [23]: 28.4%
- viability, T/C [24]: 68.3%
- viability, T/C [25]: 59.6%
- viability, T/C [26]: 49.1%
- viability, T/C [27]: 51.7%
- viability, T/C [28]: 40.9%
- viability, T/C [29]: 22.5%
- viability, T/C [30]: 49.2%
- viability, T/C [31]: 42.4%
- viability, T/C [32]: 33.8%
- viability, T/C [33]: 38.2%
- viability, T/C [34]: 30.5%
- viability, T/C [35]: 11.9%
- viability, T/C [38]: 33.9%
- viability, T/C [39]: 30.4%
- viability, T/C [40]: 28.1%
- viability, T/C [41]: 27.7%
- viability, T/C [42]: 20%
- viability, T/C [43]: 9.15%
- viability, T/C [44]: 28.5%
- viability, T/C [45]: 21.5%
- viability, T/C [46]: 18%
- viability, T/C [47]: 17.3%
- viability, T/C [48]: 15.8%
- viability, T/C [49]: 4.13%
